The values below come from US20060281771A1, “SYNERGISTIC MODULATION OF FLT3 KINASE USING AMINOQUINOLINE AND AMINOQUINAZOLINE KINASE MODULATORS” (priority 2005, published 2006).

Entries after “also recorded” stand apart in the source; their conditions may differ. A value given as a limit tells only on which side of the number the result lay.

For data set [1], the system named is MV4-11 AML cells. The experiment in a line: Cell proliferation assay and combination index analysis, MV4-11. The data set is classed as cell-based, human. To be noted: single agent; depending on the cell type.
From the text: (§1) All data points are an average of triplicate samples.
as §1

The subject of data set [2] is MV4-11 tumor xenografts. The experiment in a line: MV4-11 human tumor xenograft regression model. As to conditions: Tipifarnib alone 50 mg/kg po. The data set is classed as in vivo, nude mice. The procedure:
Female athymic nude mice (CD-1, nu/nu, 9-10 weeks old) were obtained from Charles River Laboratories (Wilmington, Mass.) and were maintained according to NIH standards. All mice were group housed (5 mice/cage) under clean-room conditions in sterile micro-isolator cages on a 12-hour light/dark cycle in a room maintained at 21-22° C. and 40-50% humidity. Mice were fed irradiated standard rodent diet and water ad libitum. All animals were housed in a Laboratory Animal Medicine facility that is fully accredited by the American Association for Assessment and Accreditation of Laboratory Animal Care (AAALAC). […]
The time course of the inhibitory effects of FLT3 inhibitor compounds on the growth of MV4-11 tumors is illustrated in FIG. 1. […] Percent inhibition (% I) of tumor growth was calculated versus tumor growth in the vehicle-treated Control group on the last study day.
Statistical significance versus Control was determined by Analysis of Variance (ANOVA) followed by Dunnett's t-test: * p<0.05; ** p<0.01.
(See FIG. 2). […] Percent Inhibition was calculated versus the mean tumor weight in the vehicle-treated control group. Statistical significance versus Control was determined by ANOVA followed by Dunnett's t-test: ** p<0.01. […]
In general terms: Xenograft models place foreign cells or tissue in a host animal.

Data set [3] is described as follows: Body weight and overt toxicity in tumor-bearing mice. As to conditions: alone or in combination. The procedure:
Female athymic nude mice weighing no less than 20-21 grams were inoculated subcutaneously in the left inguinal region of the thigh with 5×10^6 tumor cells in a delivery volume of 0.2 mL. For regression studies, the tumors were allowed to grow to a pre-determined size prior to initiation of dosing. […] Mice were dosed orally by gavage with vehicle (control group) or compound at various doses twice-daily (b.i.d.) during the week and once-daily (q.d.) on weekends. […] If tumors in the control mice reached ˜10% of body weight (˜2.0 grams), the study was to be terminated. […] During the study, tumor growth was measured three times-a-week (M, W, F) using electronic Vernier calipers. Tumor volume (mm^3) was calculated using the formula […], where L=length (mm) and W=width (shortest distance in mm) of the tumor. […]
Female athymic nude mice weighing no less than 20-21 grams were inoculated subcutaneously in the left inguinal region of the thigh with 5×10^6 tumor cells in a delivery volume of 0.2 mL. For regression studies, the tumors were allowed to grow to a pre-determined size prior to initiation of dosing. […] During the study, tumor growth was measured three times-a-week (M, W, F) using electronic Vernier calipers. Tumor volume (mm^3) was calculated using the formula […], where L=length (mm) and W=width (shortest distance in mm) of the tumor. […]

For data set [4] the following is noted: cited from earlier work.
The target of data set [5] is T1, isolated kinase domain of the human FLT3 receptor (a.a. 571-993) (Homo sapiens, UniProt P36888).
T1 construct: human FLT3 receptor (a.a. 571-993)
T1 sequence (P36888 571-993): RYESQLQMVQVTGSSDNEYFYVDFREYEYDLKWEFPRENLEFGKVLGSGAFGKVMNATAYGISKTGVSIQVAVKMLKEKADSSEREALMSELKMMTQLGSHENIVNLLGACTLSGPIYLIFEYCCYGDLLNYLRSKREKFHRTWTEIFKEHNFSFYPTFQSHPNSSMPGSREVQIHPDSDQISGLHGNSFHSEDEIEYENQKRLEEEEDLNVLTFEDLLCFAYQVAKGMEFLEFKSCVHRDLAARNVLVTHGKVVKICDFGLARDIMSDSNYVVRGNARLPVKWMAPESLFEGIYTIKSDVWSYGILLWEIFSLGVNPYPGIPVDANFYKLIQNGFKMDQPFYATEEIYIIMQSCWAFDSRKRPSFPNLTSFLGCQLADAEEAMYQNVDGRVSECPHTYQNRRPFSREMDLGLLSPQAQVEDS
Briefly: FLT3 fluorescence polarization kinase assay. The data set is classed as biochemical. An excerpt: The FLT3 FP assay utilizes the fluorescein-labeled phosphopeptide and the anti-phosphotyrosine antibody included in the Panvera Phospho-Tyrosine Kinase Kit (Green) supplied by Invitrogen. When FLT3 phosphorylates polyGlu4Tyr, the fluorescein-labeled phosphopeptide is displaced from the anti-phosphotyrosine antibody by the phosphorylated poly Glu4Tyr, thus decreasing the FP value. […] The kinase reaction is stopped with the addition of EDTA. The fluorescein-labeled phosphopeptide and the anti-phosphotyrosine antibody are added and incubated for 30 minutes at room temperature.
All data points are an average of triplicate samples. Inhibition and IC50 data analysis was done with GraphPad Prism using a non-linear regression fit with a multiparamater, sigmoidal dose-response (variable slope) equation.
(In general: In fluorescence polarisation assays a small probe gives low polarisation when free and higher when bound to something large.)

Data set [6] concerns MV4-11 cells. The experiment in a line: Inhibition of MV4-11 cell proliferation (CellTiterGlo, 72 h). As to conditions: Homo sapiens; 72 h growth inhibition. The class given is cell-based. The procedure: To assess the cellular potency of the FLT3 inhibitors of Formula I′, FLT3 specific growth inhibition was measured in the leukemic cell line MV4-11 (ATCC Number: CRL-9591). […] MV4-11 cells cannot grow and survive without active FLT3ITD.
To measure proliferation inhibition by test compounds, the luciferase based CellTiterGlo reagent (Promega), which quantifies total cell number based on total cellular ATP concentration, was used. Cells are plated at 10,000 cells per well in 100 ul of in RPMI media containing penn/strep, 10% FBS and 1 ng/ml GM-CSF or 1 ng/ml IL-3 for MV4-11 and Baf3 cells respectively.
Compound dilutions or 0.1% DMSO (vehicle control) are added to cells and the cells are allowed to grow for 72 hours at standard cell growth conditions (37° C., 5% CO2). For activity measurements in MV4-11 cells grown in 50% plasma, cells were plated at 10,000 cells per well in a 1:1 mixture of growth media and human plasma (final volume of 100 μL). To measure total cell growth an equal volume of CellTiterGlo reagent was added to each well, according to the manufacturer's instructions, and luminescence was quantified. Total cell growth was quantified as the difference in luminescent counts (relative light units, RLU) of cell number at Day 0 compared to total cell number at Day 3 (72 hours of growth and/or compound treatment). One hundred percent inhibition of growth is defined as an RLU equivalent to the Day 0 reading. Zero percent inhibition was defined as the RLU signal for the DMSO vehicle control at Day 3 of growth. All data points are an average of triplicate samples. […] Inhibition and IC50 data analysis was done with GraphPad Prism using a non-linear regression fit with a multiparamater, sigmoidal dose-response (variable slope) equation.
MV4-11 cells express the FLT3 internal tandem duplication mutation, and thus are entirely dependent upon FLT3 activity for growth. […] In contrast, the Baf3 cell proliferation is driven by the cytokine IL-3 and thus are used as a non-specific toxicity control for test compounds.
In general terms: In ATP-based viability assays light output follows the ATP content of the culture.

The mark [7] stands for this setting: multicenter Phase II trial, relapsed AML.
The mark [8] stands for this setting: patients with relapsed and refractory AML.

As to `Cn1cncc1C(N)(c1ccc(Cl)cc1)c1ccc2c(c1)c(-c1cccc(Cl)c1)cc(=O)n2C` (single isomer, unassigned; (+)) [Tipifarnib, (+)-6-[amino(4-chlorophenyl)(1-methyl-1H-imidazol-5-yl)methyl]-4-(3-chlorophenyl)-1-methyl-2(1H)-quinolinone], the potency range result in data set [1] is on record as “high nanomolar to high picomolar range”. Besides, the “effect on tumor volume vs control” value in data set [2] (9 days, Day 9) is “not significantly reduced; also recorded: ineffective”. Moreover, the “effect on tumor growth” value in data set [2] (16 days) is “ineffective”. Besides, the overt toxicity entry in data set [3] (9-day treatment) is on record as “No overt toxicity”. For the same molecule, the overt toxicity entry in data set [3] (16-day treatment) is on record as “No overt toxicity”. In data set [4] (setting [7]), the “>50% reduction in bone marrow blasts” value was 31 of 50 and the “complete responses (bone marrow blasts <5%)” value was 17 of 50. For the same molecule, in data set [4] (setting [8]), the “patients achieving complete remission” value is 2 patients and the response rate is roughly 30%.
Consider `CC(C)c1ccc(NC(=O)OC2CCN(c3ccnc4ccccc34)CC2)cc1` [Compound 10], for which the IC50 was 0.026 µM in data set [5] and 1.1 µM in data set [6].
For the molecule `COc1cc2ncnc(N3CCC(OC(=O)Nc4ccc(OC5CCC5)nc4)CC3)c2cc1OC` [Compound 11, (6-Cyclobutoxy-pyridin-3-yl)-carbamic acid 1-(6,7-dimethoxy-quinazolin-4-yl)-piperidin-4-yl ester], the figures for the IC50 in data set [5] and in data set [6] were 0.028 µM and 0.071 µM, respectively.
As for `CC(C)c1ccc(NC(=O)OC2CCN(c3ncnc4ccccc34)C2)cc1` (stereo not shown) [Compound 24, (4-Isopropyl-phenyl)-carbamic acid 1-quinazolin-4-yl-pyrrolidin-3-yl ester], the IC50 in data set [5] was found to be 0.29 µM; in data set [6], 0.22 µM.
With `COc1cc2ncnc(N3CC(CNC(=O)Nc4ccc(OC(C)C)cc4)C3)c2cc1OC` [Compound 25, 1-[1-(6,7-Dimethoxy-quinazolin-4-yl)-azetidin-3-ylmethyl]-3-(4-isopropoxy-phenyl)-urea], the IC50 in data set [5] is 0.408 µM; in data set [6], greater than 10 µM.
As for `CC(C)c1ccc(NC(=O)NC2CCN(c3ccnc4ccccc34)C2)cc1` (stereo not shown) [Compound 27, (4-Isopropyl-phenyl)-3-(1-quinolin-4-yl)-pyrrolidin-3-yl-urea], the results for the IC50 in data set [5] and in data set [6] were 0.457 µM and 5.3 µM, respectively.
Take `COc1cc2ncnc(N3CCC(C(=O)Nc4cccc(OC(C)C)c4)CC3)c2cc1OC` [Compound 30, 1(-6,7-Dimethoxy-quinazolin-4-yl)-piperidine-4-carboxylic acid (3-isopropoxy-phenyl)-amide]: the IC50 came out at 0.563 µM in data set [5] and 2.31 µM in data set [6].
Take `CC(C)c1ccc(NC(=O)OC2CCN(c3ccnc4ccccc34)C2)cc1` (stereo not shown) [Compound 34]: the IC50 in data set [5] was 1.05 µM; in data set [6], 6.4 µM.
In the case of `CC(C)Oc1ccc(NC(=O)NC2CCN(c3ccnc4ccccc34)C2)cc1` (stereo not shown) [Compound 38, (4-Isopropoxy-phenyl)-3-(1-quinolin-4-yl)-pyrrolidin-3-yl-urea], the IC50 in data set [5] is 3.15 µM; in data set [6] it was greater than 3 µM.
In the same order, the values of `CC(C)Oc1ccc(NC(=O)OC2CCN(c3ccnc4ccccc34)C2)cc1` (stereo not shown) [Compound 39] are 7.14 µM and greater than 10 µM.
On to `COc1cc2ncc(C#N)c(N3CCC(OC(=O)Nc4ccc(OC(C)C)cc4)CC3)c2cc1OC` [Compound 40, (4-Isopropoxy-phenyl)-carbamic acid 1-(3-cyano-6,7-dimethoxy-quinolin-4-yl)-piperidin-4-yl ester], for which the IC50 in data set [5] was greater than 10 µM.

Usually IC50 stands for the point on the concentration scale where inhibition reaches its midpoint. Low readings indicate greater potency, high ones weaker potency.
